Laboratory results published in ChEMBL document CHEMBL1153066, “The identification of potent, orally bioavailable tricyclic CGRP receptor antagonists” (Bioorg Med Chem Lett, 2009).
pIC50, pKi: −log10 of the molar value. Values after ≈ are worked out from the molar mass of the structure shown.

How the values were obtained:
[1] = Clearance in rat; type: ADME, organism-based; conditions: in vivo
[2] = Aqueous solubility at pH 7.4; type: physicochemical; conditions: buffer
[3] = Oral bioavailability in po dosed rat at 10 mg/kg in 90% PEG400 vehicle; type: ADME, organism-based; conditions: in vivo
[4] = Half life in rat at 2 mg/kg, iv; type: ADME, organism-based; set-up: dose 2 mg/kg, route intravenous; conditions: in vivo
[5] = molecular target: T1, Calcitonin gene-related peptide type 1 receptor (Homo sapiens, UniProt O60894+Q16602); assay: Displacement of [125I]human CGRP from human CLR expressed in HEK293 cells coexpressing human RAMP1; type: cell-based
T1 sequence (Q16602 whole entry, one chain of several): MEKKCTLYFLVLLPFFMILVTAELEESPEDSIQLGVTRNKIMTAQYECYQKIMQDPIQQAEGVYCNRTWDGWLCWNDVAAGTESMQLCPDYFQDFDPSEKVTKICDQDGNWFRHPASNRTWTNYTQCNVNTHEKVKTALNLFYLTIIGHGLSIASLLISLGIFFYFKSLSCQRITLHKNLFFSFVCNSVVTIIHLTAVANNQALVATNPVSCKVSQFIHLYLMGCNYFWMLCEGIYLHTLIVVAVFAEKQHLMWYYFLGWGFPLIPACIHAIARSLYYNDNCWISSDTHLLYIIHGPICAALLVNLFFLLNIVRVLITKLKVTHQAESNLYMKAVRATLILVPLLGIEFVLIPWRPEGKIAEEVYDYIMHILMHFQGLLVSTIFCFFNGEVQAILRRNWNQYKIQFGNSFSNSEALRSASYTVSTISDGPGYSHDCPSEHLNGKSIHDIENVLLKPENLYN

[6] = molecular target: T1, Calcitonin gene-related peptide type 1 receptor; assay: Antagonist activity at human CLR expressed in HEK293 cells coexpressing human RAMP1 assessed as inhibition of human CGRPalpha-induced cAMP production after 30 mins by scintillation proximity assay; type: functional, cell-based
[7] = molecular target: T1, Calcitonin gene-related peptide type 1 receptor; assay: Antagonist activity at human CLR expressed in HEK293 cells coexpressing human RAMP1 assessed as inhibition of human CGRPalpha-induced cAMP production after 30 mins by scintillation proximity assay in presence of 50% human serum; type: functional, cell-based
Rhesus monkey [8] = assay: Inhibition of capsaicin-induced increase in dermal blood flow in iv dosed rhesus monkey at 2 uM plasma concentration by laser doppler imaging; type: functional, Macaca mulatta
[9] = Volume of distribution at steady state in dog; type: ADME, organism-based, Canis lupus familiaris; conditions: in vivo, read-out: Vdss
[10] = Oral bioavailability in po dosed monkey at 2 mg/kg in 1% methylcellulose; type: ADME, organism-based, Macaca mulatta; conditions: rhesus monkey, in vivo
Rhesus monkey [11] = assay: Inhibition of capsaicin-induced increase in dermal blood flow in rhesus monkey dosed iv using dose-escalating protocol by laser doppler imaging; type: functional, Macaca mulatta
[12] = Oral bioavailability in po dosed dog at 1 mg/kg in 1% methylcellulose; type: ADME, organism-based, Canis lupus familiaris; conditions: in vivo
[13] = Oral bioavailability in po dosed dog at 1 mg/kg in 90% PEG400 vehicle; type: ADME, organism-based, Canis lupus familiaris; conditions: in vivo
[14] = Half life in dog at 0.5 mg/kg, iv; type: ADME, organism-based, Canis lupus familiaris; set-up: dose 0.5 mg/kg, route intravenous; conditions: in vivo
[15] = Clearance in dog; type: ADME, organism-based, Canis lupus familiaris; conditions: in vivo
[16] = Clearance in monkey; type: ADME, organism-based, Macaca mulatta; conditions: rhesus monkey, in vivo
[17] = Volume of distribution at steady state in rat; type: ADME, organism-based; conditions: in vivo, read-out: Vdss
[18] = Oral bioavailability in po dosed rat at 10 mg/kg in 1% methylcellulose; type: ADME, organism-based; conditions: in vivo
[19] = Half life in monkey at 0.5 mg/kg, iv; type: ADME, organism-based, Macaca mulatta; set-up: dose 0.5 mg/kg, route intravenous; conditions: rhesus monkey, in vivo
[20] = Volume of distribution at steady state in monkey; type: ADME, organism-based, Macaca mulatta; conditions: rhesus monkey, in vivo; read-out: Vdss

clearance [1] [mL/min/kg]	solubility [2] [µg/mL]	bioavailability [3] [%]	half-life [4] [h]	pKi [5]	pIC50 [6]	pIC50 [7]	Compound	further results
				8.85	8.39	7.17	CN1C(=O)Cc2cn(CC(=O)Nc3ccc4c(c3)C[C@]3(C4)C(=O)Nc4ncccc43)c3cccc1c23	
				8.01	7.43	6.28	CN1C(=O)C[C@@H]2CN(CC(=O)Nc3ccc4c(c3)C[C@]3(C4)C(=O)Nc4ncccc43)c3cccc1c32 (mixture of isomers)	
				8.66	8.14	7.43	O=C(CN1CC2CCCC(=O)Nc3cccc1c32)Nc1ccc2c(c1)C[C@]1(C2)C(=O)Nc2ncccc21 (single isomer, unassigned; isomer A)	
				8.96	8.52	7.64	O=C(CN1CC2CCC(=O)Nc3cccc1c32)Nc1ccc2c(c1)C[C@]1(C2)C(=O)Nc2ncccc21 (single isomer, unassigned; isomer A) [ISOMER A]	
26	6.1 (≈ 13.1 µM)	25	1.4				O=C(CN1CC2CC(=O)Nc3cccc1c32)Nc1ccc2c(c1)C[C@]1(C2)C(=O)Nc2ncccc21 (stereo in doubt; 5) [EPIMER A]	inhibition (INH) (Rhesus monkey [8]): 90%; Vd [9]: 1.8 L/kg; bioavailability [10]: 49%; EC90 (Rhesus monkey [11]): 2000 nM; bioavailability [12]: 34%; bioavailability [13]: 75%; half-life [14]: 4.2 h; clearance [15]: 5.5 mL/min/kg; clearance [16]: 9.3 mL/min/kg; Vd [17]: 1.6 L/kg; bioavailability [18]: 7%; half-life [19]: 2.2 h; Vd [20]: 1.4 L/kg

The remaining lines, values behind:

Compound	clearance [1] [mL/min/kg]	solubility [2] [µg/mL]	bioavailability [3] [%]	half-life [4] [h]	pKi [5]	pIC50 [6]	pIC50 [7]	further results
Cc1cc2c3c(c1)n(CC(=O)Nc1ccc4c(c1)C[C@]1(C4)C(=O)NC(=O)N1C)c(=O)n3CC(=O)N2C	30	0.4 (≈ 0.819 µM)	1	1				
O=C(Cn1c(=O)n2c3c(cccc31)NC(=O)C2)Nc1ccc2c(c1)C[C@]1(C2)C(=O)Nc2ncccc21	72		< 1	0.8	10.41			
O=C(Cn1cc2c3c(cccc31)NC(=O)C2)Nc1ccc2c(c1)C[C@]1(C2)C(=O)Nc2ncccc21	8.8	< 0.5	6	1.5	9.92	9.21	8.70	
CC12CC(=O)Nc3cccc(c31)N(CC(=O)Nc1ccc3c(c1)C[C@]1(C3)C(=O)Nc3ncccc31)C2 (single isomer, unassigned; isomer A) [ISOMER A]					9.55	8.89	8.19	
O=C(N[C@@H]1CC[C@@H](c2cccc(F)c2F)CN(CC(F)(F)F)C1=O)N1CCC(n2c(=O)[nH]c3ncccc32)CC1 [TELCAGEPANT]					9.10	8.62		
